The source of these data is ChEMBL document CHEMBL3867480 (Bioorg Med Chem, 2016).

In one data set the target is T1, Interstitial collagenase (Homo sapiens, UniProt P03956).
T1 sequence (P03956 whole entry): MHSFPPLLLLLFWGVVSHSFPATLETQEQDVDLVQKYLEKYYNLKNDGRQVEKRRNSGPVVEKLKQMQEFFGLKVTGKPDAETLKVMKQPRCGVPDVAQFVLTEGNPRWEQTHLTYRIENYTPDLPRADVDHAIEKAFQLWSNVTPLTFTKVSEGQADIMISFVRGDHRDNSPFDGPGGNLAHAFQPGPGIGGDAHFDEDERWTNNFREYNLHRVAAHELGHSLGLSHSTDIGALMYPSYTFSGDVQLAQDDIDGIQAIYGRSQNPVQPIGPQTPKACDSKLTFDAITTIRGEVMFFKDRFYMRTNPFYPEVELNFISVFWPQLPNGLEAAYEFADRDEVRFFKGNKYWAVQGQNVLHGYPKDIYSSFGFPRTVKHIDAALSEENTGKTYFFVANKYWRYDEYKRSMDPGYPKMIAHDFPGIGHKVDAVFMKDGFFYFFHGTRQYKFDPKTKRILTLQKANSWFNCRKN
Put plainly: Inhibition of recombinant human […]-activated MMP1 using Cy3-PLGLK(Cy5Q)AR-NH2 as substrate measured after 40 mins by spectrofluorimetric method.

For data set [1], the target named is 72 kDa type IV collagenase (Homo sapiens, UniProt P08253). Nature of the data set: Inhibition of recombinant human […]-activated MMP2 using Cy3-PLGLK(Cy5Q)AR-NH2 as substrate measured after 40 mins by spectrofluorimetric method.
For a further data set, the target named is Stromelysin-1 (Homo sapiens, UniProt P08254). Nature of the data set: Inhibition of recombinant human […]-activated MMP3 using Cy3-PLGLK(Cy5Q)AR-NH2 as substrate measured after 40 mins by spectrofluorimetric method.
For another data set, the target named is T2, Matrilysin (Homo sapiens, UniProt P09237).
T2 sequence (P09237 whole entry): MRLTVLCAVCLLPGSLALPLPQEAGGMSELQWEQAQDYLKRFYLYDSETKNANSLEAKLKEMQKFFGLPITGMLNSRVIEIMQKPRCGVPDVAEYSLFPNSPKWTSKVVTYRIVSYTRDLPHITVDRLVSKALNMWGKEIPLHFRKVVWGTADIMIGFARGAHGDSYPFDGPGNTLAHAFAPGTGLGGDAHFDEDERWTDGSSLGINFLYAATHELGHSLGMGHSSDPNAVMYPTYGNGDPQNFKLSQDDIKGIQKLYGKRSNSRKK
Put plainly: Inhibition of recombinant human […]-activated MMP7 using Cy3-PLGLK(Cy5Q)AR-NH2 as substrate measured after 40 mins by spectrofluorimetric method.

In a further data set the target is Neutrophil collagenase (Homo sapiens, UniProt P22894). Put plainly: Inhibition of recombinant human […]-activated MMP8 using Cy3-PLGLK(Cy5Q)AR-NH2 as substrate measured after 40 mins by spectrofluorimetric method.
For data set [2], the target named is Matrix metalloproteinase-9 (Homo sapiens, UniProt P14780). Nature of the data set: Inhibition of recombinant human […]-activated MMP9 using Cy3-PLGLK(Cy5Q)AR-NH2 as substrate measured after 40 mins by spectrofluorimetric method.
The target in a further data set is Stromelysin-2 (Homo sapiens, UniProt P09238). Nature of the data set: Inhibition of recombinant human […]-activated MMP10 using Cy3-PLGLK(Cy5Q)AR-NH2 as substrate measured after 40 mins by spectrofluorimetric method.
Data set [3] concerns the target Macrophage metalloelastase (Homo sapiens, UniProt P39900). Put plainly: Inhibition of recombinant human […]-activated MMP12 using Cy3-PLGLK(Cy5Q)AR-NH2 as substrate measured after 40 mins by spectrofluorimetric method.
The target of data set [4] is Matrix metalloproteinase-14 (Homo sapiens, UniProt P50281). Put plainly: Inhibition of recombinant human GST-tagged MMP14 using Cy3-PLGLK(Cy5Q)AR-NH2 as substrate measured after 40 mins by spectrofluorimetric method.
In data set [5] the target is Disintegrin and metalloproteinase domain-containing protein 17 (Homo sapiens, UniProt P78536). Put plainly: Inhibition of recombinant human TACE using Cy3-PLAQAV(Cy5Q-L-2,3-diaminopropionic acid)-RSSSR-NH2 as substrate measured after 40 mins by spectrofluorimetric method.
A further data set deals with Collagenase 3 (Homo sapiens, UniProt P45452).
A short description of data set [6]: Solubility of the compound at pH 6.8. Type of data set: physicochemical. Particulars: buffer.
The nature of data set [7]: Permeability of the compound at pH 7.4 by PAMPA assay. The note with it: read-out: permeability. Type of data set: ADME. Background: The PAMPA barrier holds no transporters, so it reflects passive diffusion.
Data set [8] is described as follows: Clearance in human liver microsomes. The note with it: read-out: CLH. Format: ADME. On the technique in general: Liver microsomes are vesicles of endoplasmic reticulum, rich in cytochrome P450 enzymes.
A short description of data set [9]: Volume of distribution in rat at 0.1 mg/kg, iv or 1 mg/kg, po. Type of data set: ADME, organism-based. The note with it: in vivo.
Data set [10] is described as follows: Clearance in rat at 0.1 mg/kg, iv or 1 mg/kg, po. Format: ADME, organism-based. The note with it: in vivo.
A short description of data set [11]: Oral bioavailability in rat at 1 mg/kg. Format: ADME, organism-based. Particulars: in vivo.
For another data set, the target named is CYP3A4 (Homo sapiens, UniProt P08684). Nature of the data set: Inhibition of CYP3A4 (unknown origin) at 10 uM. Type of data set: ADME.
A short description of data set [12]: Clearance in rat liver microsomes. Format: ADME. The note with it: read-out: CLH.

≈ marks a conversion by molar mass, not a printed value.

Usually IC50 stands for the point on the concentration scale where inhibition reaches its midpoint. One may read the solubility as the dissolved amount per volume that the medium holds. The low end stands for a poorly soluble substance, the high end for a readily soluble substance. As usually defined, the bioavailability is the share of a dose that reaches the circulation, judged against a reference dose that is usually intravenous. A high value points to good availability. One may read the inhibition as the drop in the measured response relative to a control, in per cent. A high value points to a response far below the control.

Chain of Stromelysin-1 (P08254 whole entry): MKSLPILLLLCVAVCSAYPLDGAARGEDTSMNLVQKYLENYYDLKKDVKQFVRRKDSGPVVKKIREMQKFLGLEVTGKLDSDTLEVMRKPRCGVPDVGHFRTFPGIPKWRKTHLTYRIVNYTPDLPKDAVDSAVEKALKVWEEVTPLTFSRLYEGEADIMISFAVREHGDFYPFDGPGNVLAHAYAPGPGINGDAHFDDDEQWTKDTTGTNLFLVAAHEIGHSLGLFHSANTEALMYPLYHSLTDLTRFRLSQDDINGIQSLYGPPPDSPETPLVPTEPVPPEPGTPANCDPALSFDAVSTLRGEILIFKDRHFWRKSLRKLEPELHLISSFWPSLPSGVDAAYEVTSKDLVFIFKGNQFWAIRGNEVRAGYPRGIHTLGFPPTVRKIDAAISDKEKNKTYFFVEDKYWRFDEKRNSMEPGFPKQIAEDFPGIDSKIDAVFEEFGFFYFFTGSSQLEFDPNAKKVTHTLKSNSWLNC
Chain of Neutrophil collagenase (P22894 whole entry): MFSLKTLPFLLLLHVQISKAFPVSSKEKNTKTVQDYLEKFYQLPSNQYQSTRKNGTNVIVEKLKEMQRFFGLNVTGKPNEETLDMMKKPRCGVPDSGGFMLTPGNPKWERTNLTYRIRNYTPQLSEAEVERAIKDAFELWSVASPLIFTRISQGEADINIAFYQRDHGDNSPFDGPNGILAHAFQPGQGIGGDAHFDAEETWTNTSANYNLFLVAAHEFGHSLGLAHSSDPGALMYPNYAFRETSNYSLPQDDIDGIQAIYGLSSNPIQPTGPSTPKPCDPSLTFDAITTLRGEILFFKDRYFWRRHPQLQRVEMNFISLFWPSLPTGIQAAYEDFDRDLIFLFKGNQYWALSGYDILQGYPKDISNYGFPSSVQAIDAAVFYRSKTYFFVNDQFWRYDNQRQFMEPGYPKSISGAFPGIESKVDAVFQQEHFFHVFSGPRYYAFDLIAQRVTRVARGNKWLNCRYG
Chain of Macrophage metalloelastase (P39900 whole entry): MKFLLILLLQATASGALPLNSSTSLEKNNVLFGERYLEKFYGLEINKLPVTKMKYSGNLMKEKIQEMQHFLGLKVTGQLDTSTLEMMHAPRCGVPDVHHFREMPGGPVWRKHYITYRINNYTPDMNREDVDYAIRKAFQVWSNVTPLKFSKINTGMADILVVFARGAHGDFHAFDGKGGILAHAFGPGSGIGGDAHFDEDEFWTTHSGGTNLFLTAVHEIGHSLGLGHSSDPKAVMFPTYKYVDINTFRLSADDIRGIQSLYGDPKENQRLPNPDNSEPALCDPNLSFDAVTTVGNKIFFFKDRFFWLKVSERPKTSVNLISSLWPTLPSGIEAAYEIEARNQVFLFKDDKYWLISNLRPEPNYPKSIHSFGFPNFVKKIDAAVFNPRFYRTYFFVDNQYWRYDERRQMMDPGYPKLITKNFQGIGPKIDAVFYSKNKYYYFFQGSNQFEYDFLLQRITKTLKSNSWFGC
Chain of Disintegrin and metalloproteinase domain-containing protein 17 (P78536 whole entry, the tested form may be a part): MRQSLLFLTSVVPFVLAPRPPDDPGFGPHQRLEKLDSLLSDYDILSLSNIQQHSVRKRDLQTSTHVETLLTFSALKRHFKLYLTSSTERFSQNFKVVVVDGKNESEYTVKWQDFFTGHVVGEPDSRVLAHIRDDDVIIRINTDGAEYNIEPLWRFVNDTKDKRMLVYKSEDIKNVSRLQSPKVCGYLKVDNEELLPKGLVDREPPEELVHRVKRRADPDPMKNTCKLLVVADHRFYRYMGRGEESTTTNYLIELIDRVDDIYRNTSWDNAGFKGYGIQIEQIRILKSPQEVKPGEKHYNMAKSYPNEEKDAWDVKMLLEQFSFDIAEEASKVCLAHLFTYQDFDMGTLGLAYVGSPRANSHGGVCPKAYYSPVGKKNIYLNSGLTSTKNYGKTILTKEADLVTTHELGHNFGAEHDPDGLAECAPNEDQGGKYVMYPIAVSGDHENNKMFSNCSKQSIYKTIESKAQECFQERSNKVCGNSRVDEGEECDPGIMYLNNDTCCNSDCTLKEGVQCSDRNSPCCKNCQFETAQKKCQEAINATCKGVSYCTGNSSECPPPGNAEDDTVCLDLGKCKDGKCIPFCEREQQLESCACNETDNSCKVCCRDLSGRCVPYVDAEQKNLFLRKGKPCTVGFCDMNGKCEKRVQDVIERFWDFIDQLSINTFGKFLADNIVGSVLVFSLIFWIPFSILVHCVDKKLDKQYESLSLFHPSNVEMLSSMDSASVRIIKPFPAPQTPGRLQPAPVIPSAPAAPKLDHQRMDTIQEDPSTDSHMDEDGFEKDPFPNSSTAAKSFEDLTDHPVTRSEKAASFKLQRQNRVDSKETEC
Chain of Matrix metalloproteinase-9 (P14780 whole entry): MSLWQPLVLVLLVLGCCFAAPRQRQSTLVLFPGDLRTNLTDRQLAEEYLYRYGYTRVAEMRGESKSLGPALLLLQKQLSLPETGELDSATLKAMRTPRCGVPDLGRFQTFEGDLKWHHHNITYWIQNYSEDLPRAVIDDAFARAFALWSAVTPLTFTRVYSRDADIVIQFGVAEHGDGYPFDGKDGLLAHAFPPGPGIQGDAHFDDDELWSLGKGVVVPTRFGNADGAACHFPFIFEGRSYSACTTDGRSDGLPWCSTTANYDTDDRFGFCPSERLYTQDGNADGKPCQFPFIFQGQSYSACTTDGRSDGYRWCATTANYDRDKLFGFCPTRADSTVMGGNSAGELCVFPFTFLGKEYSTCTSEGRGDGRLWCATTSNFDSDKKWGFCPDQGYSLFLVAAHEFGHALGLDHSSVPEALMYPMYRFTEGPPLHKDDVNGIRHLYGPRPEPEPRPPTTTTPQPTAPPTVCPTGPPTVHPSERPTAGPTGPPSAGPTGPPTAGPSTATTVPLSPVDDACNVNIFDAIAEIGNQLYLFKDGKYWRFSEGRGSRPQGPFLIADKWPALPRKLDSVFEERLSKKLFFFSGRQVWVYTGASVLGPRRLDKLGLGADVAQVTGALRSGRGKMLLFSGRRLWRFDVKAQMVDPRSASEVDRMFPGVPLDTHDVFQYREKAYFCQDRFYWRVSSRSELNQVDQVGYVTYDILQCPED
Chain of 72 kDa type IV collagenase (P08253 whole entry): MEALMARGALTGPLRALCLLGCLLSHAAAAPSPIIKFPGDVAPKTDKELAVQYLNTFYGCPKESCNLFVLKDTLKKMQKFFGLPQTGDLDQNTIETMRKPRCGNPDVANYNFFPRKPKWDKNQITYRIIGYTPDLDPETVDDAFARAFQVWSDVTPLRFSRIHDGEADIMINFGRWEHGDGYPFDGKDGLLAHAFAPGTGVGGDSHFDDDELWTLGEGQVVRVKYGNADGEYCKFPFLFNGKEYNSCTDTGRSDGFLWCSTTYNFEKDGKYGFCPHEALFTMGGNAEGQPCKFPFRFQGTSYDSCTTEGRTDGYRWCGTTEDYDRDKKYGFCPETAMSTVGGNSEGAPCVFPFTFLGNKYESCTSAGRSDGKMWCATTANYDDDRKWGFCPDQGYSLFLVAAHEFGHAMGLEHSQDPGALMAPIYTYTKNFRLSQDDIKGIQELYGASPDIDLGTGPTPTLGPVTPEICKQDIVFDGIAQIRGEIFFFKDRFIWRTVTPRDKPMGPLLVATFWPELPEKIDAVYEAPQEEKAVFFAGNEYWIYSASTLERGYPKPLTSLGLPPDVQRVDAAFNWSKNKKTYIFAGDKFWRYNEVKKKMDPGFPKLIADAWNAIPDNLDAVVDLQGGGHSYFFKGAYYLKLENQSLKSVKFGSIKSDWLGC
Chain of Stromelysin-2 (P09238 whole entry): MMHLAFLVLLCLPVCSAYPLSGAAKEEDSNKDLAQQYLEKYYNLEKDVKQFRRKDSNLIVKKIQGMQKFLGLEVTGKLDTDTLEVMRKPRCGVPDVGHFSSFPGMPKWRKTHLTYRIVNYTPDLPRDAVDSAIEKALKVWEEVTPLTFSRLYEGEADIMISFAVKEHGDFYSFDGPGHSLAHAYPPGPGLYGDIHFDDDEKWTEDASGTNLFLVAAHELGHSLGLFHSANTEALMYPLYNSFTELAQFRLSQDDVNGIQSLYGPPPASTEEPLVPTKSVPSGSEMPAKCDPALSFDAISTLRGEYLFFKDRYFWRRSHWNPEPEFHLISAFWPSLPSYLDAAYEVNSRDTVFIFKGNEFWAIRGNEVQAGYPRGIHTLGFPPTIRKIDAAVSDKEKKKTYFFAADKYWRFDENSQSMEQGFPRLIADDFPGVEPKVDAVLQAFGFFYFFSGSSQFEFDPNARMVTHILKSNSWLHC
Chain of CYP3A4 (P08684 whole entry): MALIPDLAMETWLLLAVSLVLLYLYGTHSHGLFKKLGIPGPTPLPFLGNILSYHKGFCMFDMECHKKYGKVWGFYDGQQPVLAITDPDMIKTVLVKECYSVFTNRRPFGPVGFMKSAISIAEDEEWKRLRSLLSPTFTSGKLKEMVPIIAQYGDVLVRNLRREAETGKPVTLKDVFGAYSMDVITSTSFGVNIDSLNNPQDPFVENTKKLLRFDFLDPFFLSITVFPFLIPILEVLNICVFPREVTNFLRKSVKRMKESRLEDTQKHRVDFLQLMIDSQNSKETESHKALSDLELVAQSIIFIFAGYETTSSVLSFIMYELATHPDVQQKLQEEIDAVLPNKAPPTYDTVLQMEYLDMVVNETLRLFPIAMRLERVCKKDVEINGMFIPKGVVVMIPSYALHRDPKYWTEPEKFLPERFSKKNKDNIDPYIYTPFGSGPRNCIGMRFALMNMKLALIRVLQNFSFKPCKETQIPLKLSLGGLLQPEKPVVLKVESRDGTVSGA
Description for Collagenase 3: Inhibition of recombinant human AMPA-activated MMP13 using Cy3-PLGLK(Cy5Q)AR-NH2 as substrate measured after 40 mins by spectrofluorimetric method

Take `CC(C)[C@H](NS(=O)(=O)c1ccc(-c2cccc(CNC(=O)c3nc4ccccc4c(=O)[nH]3)c2)cc1)C(=O)NO`: the IC50 stood at 11 nM on Interstitial collagenase; 1.9 nM in [1]; 1.5 nM on Stromelysin-1; 7.3 nM on Matrilysin; 0.82 nM on Neutrophil collagenase; 4.7 nM in data set [2]. Moreover, the IC50 was 0.3 nM at Stromelysin-2; 8.1 nM in [3]; 3.8 nM in data set [4]; over 10000 nM in [5]; 0.0032 nM against Collagenase 3.

As to `CCOCCC1(Oc2ccc(-c3cccc(CNC(=O)c4nc5ccccc5c(=O)[nH]4)c3)cc2)C(=O)NC(=O)NC1=O`, the concentration for half-maximal inhibition (IC50) on Interstitial collagenase was over 10000 nM; in [1], 110 nM; at Stromelysin-1, 3300 nM; at Matrilysin, over 10000 nM; at Neutrophil collagenase, 56 nM; in [2] it was 1600 nM. Moreover, the IC50 on Stromelysin-2 is 930 nM; in data set [3], 540 nM; in data set [4], 3700 nM; in [5], over 10000 nM; against Collagenase 3 it was 0.23 nM. Moreover, in data set [6], the solubility came to 9.1 µg/mL (≈ 16 µM). In data set [7], the Papp worked out at 9.5 ×10⁻⁶ cm/s. Further, the microsomal CLint in data set [8] amounted to 12 µL/min/mg. Besides, the Vd in [9] was 0.054 L/kg. The compound also showed a clearance in data set [10] of 0.35 mL/min/kg. Also, the bioavailability in data set [11] amounted to 32%. This compound also showed an inhibition at 10 µM against CYP3A4 of 22%.

On to `O=C(NCc1cccc(N2CCN(C(=O)Cc3c[nH]cn3)CC2)c1)c1nc2ccccc2c(=O)[nH]1`, for which the IC50 came out at 120 nM in [1], 45 nM on Neutrophil collagenase, 460 nM on Stromelysin-2 and 1.7 nM on Collagenase 3.

In the case of `CC(C)C(CS(=O)(=O)c1ccc(-c2cccc(CNC(=O)c3nc4ccccc4c(=O)[nH]3)c2)cc1)N(O)C=O` (stereo unspecified), the half-inhibitory concentration (IC50) at Interstitial collagenase was determined as 18 nM; in data set [1], 3 nM; on Stromelysin-1, 2.5 nM; on Matrilysin, 30 nM; at Neutrophil collagenase, 1.3 nM; in [2] it was 5.3 nM. Further, the IC50 was 0.35 nM at Stromelysin-2; 8.5 nM in data set [3]; 5.4 nM in data set [4]; over 10000 nM in data set [5]; 0.051 nM at Collagenase 3.

For `CC(C)C(CS(=O)(=O)c1ccc(-c2cccc(CNC(=O)c3nc4ccccc4c(=O)[nH]3)c2)cc1)N(O)C(N)=O` (stereo unspecified), the IC50 in data set [1] is under 10 nM; on Neutrophil collagenase, 19 nM; on Stromelysin-2, under 10 nM; against Collagenase 3, 0.26 nM.

Take `O=C(NCc1cccc(-c2ccc(CS(=O)(=O)Cc3n[nH]c(=O)[nH]3)cc2)c1)c1nc2scc(-c3cccc(Cl)c3)c2c(=O)[nH]1`: the concentration for half-maximal inhibition (IC50) in data set [1] turned out to be 86 nM; on Neutrophil collagenase, 1000 nM; on Stromelysin-2, 34 nM; on Collagenase 3, 0.38 nM.

On to `O=C(NCc1cccc(N2CCN(C(=O)Cc3nnn[nH]3)CC2)c1)c1nc2ccccc2c(=O)[nH]1`, for which the concentration for half-maximal inhibition (IC50) in data set [1] worked out at 160 nM; at Neutrophil collagenase, 32 nM; on Stromelysin-2, 640 nM; against Collagenase 3 it was 1.5 nM.

As for `CC(=O)N(O)C(CS(=O)(=O)c1ccc(-c2cccc(CNC(=O)c3nc4ccccc4c(=O)[nH]3)c2)cc1)C(C)C` (stereo unspecified), the IC50 came out at 65 nM in [1], 110 nM at Neutrophil collagenase, 64 nM on Stromelysin-2 and 0.3 nM against Collagenase 3. In [6], this compound registered a solubility of 0.93 µg/mL (≈ 1.65 µM). The Papp in [7] was determined as 45.2 ×10⁻⁶ cm/s. The microsomal CLint in [8] and in data set [12] was 250 µL/min/mg throughout. Further, the clearance in [10] was under 0.0167 mL/min/kg. In data set [11], this compound displayed a bioavailability of under 1%. The same compound came in with an inhibition at 10 µM against CYP3A4 of 99%.

For `CC(C)[C@H](NS(=O)(=O)c1ccc(-c2cccc(CNC(=O)c3nc4ccccc4c(=O)[nH]3)c2)cc1)C(=O)O`, the IC50 on Interstitial collagenase turned out to be 3400 nM; in data set [1] it was 8.3 nM; on Stromelysin-1, 30 nM; at Matrilysin, 1000 nM; on Neutrophil collagenase it was 8.9 nM; in [2] it was 36 nM. For the same compound, the IC50 at Stromelysin-2 is 2.4 nM; in data set [3], 16 nM; in data set [4], 140 nM; in data set [5] it was over 10000 nM; on Collagenase 3 it was 0.17 nM.

Consider `O=C(NCc1cccc(N2CCN(C(=O)Cc3n[nH]c(=O)[nH]3)CC2)c1)c1nc2ccccc2c(=O)[nH]1`, for which the IC50 at Interstitial collagenase was over 10000 nM; in data set [1], 10 nM; on Stromelysin-1, 23 nM; on Matrilysin, over 10000 nM; on Neutrophil collagenase, 3.9 nM; in data set [2], 2900 nM. Also, the IC50 at Stromelysin-2 is 6.2 nM; in [3], 260 nM; in [4], 8900 nM; in data set [5], over 10000 nM; at Collagenase 3, 0.11 nM.

In the case of `O=C(NCc1cccc(N2CCN(C(=O)Cc3cc(=O)[nH][nH]3)CC2)c1)c1nc2ccccc2c(=O)[nH]1`, the IC50 was under 10 nM in data set [1], under 10 nM at Neutrophil collagenase, under 10 nM on Stromelysin-2 and 0.36 nM at Collagenase 3.

As for `O=C(NCc1cccc(OCCCOc2nc[nH]n2)c1)c1nc2ccccc2c(=O)[nH]1`, the IC50 in [1] came to 32 nM; at Neutrophil collagenase, 22 nM; at Stromelysin-2, 220 nM; against Collagenase 3, 0.59 nM.

`COc1cccc(CNC(=O)c2nc3ccccc3c(=O)[nH]2)c1` yielded an IC50 at Collagenase 3 of 5.6 to 12 nM.

In the case of `O=C1NC(=O)C(CC(=O)N2CCN(c3cccc(CNC(=O)c4nc5ccccc5c(=O)[nH]4)c3)CC2)N1` (stereo unspecified), the IC50 is under 10 nM in [1], under 10 nM at Neutrophil collagenase, under 10 nM at Stromelysin-2 and 0.19 nM at Collagenase 3.

For `O=C(NCc1cccc(OCCCS(=O)(=O)N2CCCCC2C(=O)O)c1)c1nc2ccccc2c(=O)[nH]1` (stereo unspecified), the IC50 on Interstitial collagenase was over 10000 nM; in data set [1], 14 nM; at Stromelysin-1, 370 nM; at Matrilysin, over 10000 nM; on Neutrophil collagenase it was 14 nM; in [2], over 10000 nM. Besides, the IC50 was 240 nM on Stromelysin-2; 300 nM in [3]; over 10000 nM in [4]; over 10000 nM in data set [5]; 0.24 nM against Collagenase 3.

For `O=C(NCc1cccc(OCCCOc2nc[nH]n2)c1)c1nc2scc(-c3cccc(Cl)c3)c2c(=O)[nH]1`, the IC50 in [1] was 510 nM; at Neutrophil collagenase, over 1000 nM; on Stromelysin-2, 820 nM.

Consider `COc1cccc(CNC(=O)c2nc3scc(-c4cccc(Cl)c4)c3c(=O)[nH]2)c1`, for which the IC50 is 2600 nM in data set [1], over 10000 nM at Neutrophil collagenase, 6300 nM at Stromelysin-2 and 0.12 nM against Collagenase 3.

`O=C(NCc1cccc(OCCCS(=O)(=O)N2CCCCC2C(=O)NO)c1)c1nc2ccccc2c(=O)[nH]1` (stereo unspecified): the IC50 at Interstitial collagenase is over 10000 nM; in data set [1], 0.57 nM; on Stromelysin-1 it was 2.6 nM; at Matrilysin, 2000 nM; at Neutrophil collagenase, 1.2 nM; in [2], 72 nM. Besides, the IC50 worked out at 2.6 nM at Stromelysin-2; 1.8 nM in data set [3]; 550 nM in data set [4]; 510 nM in [5]; 0.052 nM at Collagenase 3.
